Publication PMC5515969, “Effects of 31 FDA approved small-molecule kinase inhibitors on isolated rat liver mitochondria” (Archives of Toxicology, 2016)
Where two headings read alike, the source gives them in different places.

Key:
RCC I–V = experiment: Activities of RCC I–V, overall statements; assay type: biochemical, rat; conditions: submitochondrial particles
Protocol: (§1) KIs were incubated with submitochondrial particles (1 mg/ml) for 15 min and then RCC I–V activities measured. […] The activities of DMSO-treated samples (controls) were set as 1. […] The difference between the activity from rotenone-containing buffer and rotenone-absent buffer was considered as RCC I activity. […] For measuring RCC I/V and II activity, the changes in absorbance at 340 and 600 nm, respectively, were determined every 1 min for 6 min. For measuring RCC III and RCC IV, the changes in absorbance at 550 nm were measured every 10 s for 2 min.

RCC IV = RCC IV activity in submitochondrial particles; assay type: biochemical, rat; parameters: key to RCC IV at 50XCmax / RCC IV at 100XCmax: activity relative to DMSO-treated controls (control set as 1 = 100%)
Protocol: as §1

RCC I = RCC I activity in submitochondrial particles; assay type: biochemical, rat; parameters: key to RCC I at 10XCmax / RCC I at 100XCmax / RCC I at 50XCmax / RCC I at 30XCmax / RCC I at 20XCmax: activity relative to DMSO-treated controls (control set as 1 = 100%)
In short: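 First, submitochondrial particles (1 mg/ml) are incubated with inhibitor for 15 min. Next, complex activities are followed spectrophotometrically, with RCC I taken as the difference between buffers lacking and containing rotenone. Finally, activities are expressed relative to DMSO controls set at 1.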

RCC III = RCC III activity in submitochondrial particles; assay type: biochemical, rat; parameters: key to RCC III at 100XCmax: activity relative to DMSO-treated controls (control set as 1 = 100%)
Protocol: as §1

[1] = cited from earlier work
[2] = system: isolated rat liver mitochondria; experiment: Mitochondrial oxygen consumption (glutamate/malate or succinate driven, state 4 and state 3); assay type: biochemical; as to State 3 respiration driven by succinate at 10XCmax: key: 0 indicates that the drug had no effects (negative); as to State 3 respiration driven by succinate at 1XCmax: key: 0 indicates that the drug had no effects (negative)
In short: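 Oxygen uptake on glutamate/malate or on succinate defined state 4; ADP added 3 min later gave state 3. Mitochondria isolated from rat liver by differential centrifugation, adjusted to 1 mg/ml and pretreated 5 min with inhibitor (0.1% DMSO final). Values relative to DMSO control, set to 1.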

[3] = system: isolated rat liver mitochondria; experiment: Mitochondrial toxicity, any endpoint, intact mitochondria and submitochondrial particles; assay type: biochemical; conditions: highest concentrations tested
Protocol: Rats were anesthetized by an intraperitoneal injection of Nembutal and the liver perfused with PBS to remove the blood. The liver was then cut into small pieces and homogenized using a Dounce type homogenizer in the ice-cold isolation buffer (IB) containing 200 mM sucrose, 10 mM Tris-MOPS, 1 mM EGTA (pH 7.4). The sample was then centrifuged at 600g for 10 min. The supernatant was further centrifuged at 7500g for 10 min, and the pellets was washed once with the IB and centrifuged again at 7500g for 10 min to collect mitochondria. […] Before drug treatment, the protein concentration was adjusted to 1 mg/ml using appropriate buffer. […] Briefly, mitochondrial and cytosolic fractions from four different preparations using four rats were diluted using the Laemmli protein loading buffer and subject to SDS-PAGE with 4–20% gradient gels. The proteins were blotted to PVDF membranes and detected using antibodies against GAPDH, ATP5A, UQCRC2, SDHB, and NDUFB8.
The aliquoted stock solutions were kept for less than one month and each tube was used only once. The KIs were added to the mitochondria at 1:1000 dilutions. […] The Cmax data were from clinical trials which used FDA recommend dosages, route of administration, and duration. […] The final concentration of DMSO for drug treatment was always 0.1%, and control treatments were 0.1% DMSO.

RCC V = RCC V activity in submitochondrial particles; assay type: biochemical, rat; conditions: DMSO treated samples set as 1; as to RCC V at 5XCmax: key: 0 indicates that the drug had no effects (negative)
In short: (§2)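 Abs 340 nm (I/V) or 600 nm (II), 1-min reads × 6 min; 550 nm (III, IV), 10-s reads × 2 min. RCC I = rotenone-free minus rotenone rate. DMSO control = 1.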

[4] = system: isolated rat liver mitochondria; conditions: positive control alamethicin treated samples
[5] = system: isolated rat liver mitochondria; experiment: Mitochondrial inner membrane potential (MMP), Rhodamine 123; assay type: biochemical; conditions: difference in signal between KI and DMSO treated samples at the end of experiments
Source text: Fig. 3 KI effects on mitochondrial inner membrane potential (MMP). […] In a, c, data are means and standard derivations from three separate experiments. *p < 0.05 as compared to DMSO-treated samples at the end of experiments. In b, data are means of two independent experiments

RCC II = target: T1, RCC II (Rattus norvegicus, UniProt P21913+Q641Z9+Q6PCT8+Q920L2); experiment: RCC II activity in submitochondrial particles; assay type: biochemical; parameters: key: activity relative to DMSO-treated controls (control set as 1 = 100%); conditions: DMSO treated samples set as 1
T1 construct: Submitochondrial particles were prepared by subjecting the intact mitochondria to three successive freeze–thaw cycles; from tissue; host or cells: rat liver mitochondria, used as submitochondrial particles
In short: as §2

[6] = in vivo; cited from earlier work
[7] = system: isolated rat liver mitochondria; experiment: Mitochondrial swelling (absorbance at 535 nm); assay type: biochemical; conditions: difference in signal between KI and DMSO treated samples at the end of experiments; as to Swelling 5XCmax: key: 0 indicates that the drug had no effects (negative)
[8] = system: isolated rat liver mitochondria; experiment: Mitochondrial ROS production (CM-H2DCFDA); conditions: DMSO treated samples set as 1
[9] = ref product labeling, cited from earlier work
[10] = 1-fold Cmax, 15 min, DMSO-treated = 100
[11] = 10XCmax, DMSO treated samples set as 1
[12] = 1XCmax, DMSO treated samples set as 1
[13] = 2.5XCmax, DMSO treated samples set as 1
[14] = 5XCmax, DMSO treated samples set as 1
[15] = 20XCmax, DMSO treated samples set as 1
[16] = 30XCmax, DMSO treated samples set as 1
[17] = 50XCmax, DMSO treated samples set as 1
[18] = 100XCmax, DMSO treated samples set as 1

T1 sequence (Q920L2 35-656): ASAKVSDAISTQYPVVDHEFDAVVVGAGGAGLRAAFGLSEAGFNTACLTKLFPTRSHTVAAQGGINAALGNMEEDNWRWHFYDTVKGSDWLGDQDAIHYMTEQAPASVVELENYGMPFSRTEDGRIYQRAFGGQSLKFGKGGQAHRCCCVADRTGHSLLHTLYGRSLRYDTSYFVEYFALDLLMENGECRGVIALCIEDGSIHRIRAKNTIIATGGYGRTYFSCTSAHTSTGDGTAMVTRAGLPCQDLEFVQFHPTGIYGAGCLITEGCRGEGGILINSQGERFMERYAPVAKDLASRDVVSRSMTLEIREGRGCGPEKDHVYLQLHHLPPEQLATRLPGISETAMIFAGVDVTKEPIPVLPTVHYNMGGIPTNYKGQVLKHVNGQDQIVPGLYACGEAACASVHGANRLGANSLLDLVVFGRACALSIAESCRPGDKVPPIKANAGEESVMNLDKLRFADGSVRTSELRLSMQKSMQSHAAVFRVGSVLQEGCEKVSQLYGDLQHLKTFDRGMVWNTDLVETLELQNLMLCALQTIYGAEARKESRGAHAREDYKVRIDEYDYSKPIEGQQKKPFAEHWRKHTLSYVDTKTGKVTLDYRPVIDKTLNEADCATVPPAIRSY
T1 sequence (P21913 31-282): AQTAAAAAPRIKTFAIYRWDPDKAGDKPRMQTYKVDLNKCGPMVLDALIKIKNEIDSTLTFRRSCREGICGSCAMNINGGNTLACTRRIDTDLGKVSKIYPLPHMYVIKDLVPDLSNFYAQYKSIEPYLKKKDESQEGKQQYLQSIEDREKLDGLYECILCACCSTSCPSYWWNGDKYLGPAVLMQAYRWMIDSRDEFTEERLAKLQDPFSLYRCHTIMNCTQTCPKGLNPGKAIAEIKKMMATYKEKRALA
T1 sequence (Q641Z9 1-169): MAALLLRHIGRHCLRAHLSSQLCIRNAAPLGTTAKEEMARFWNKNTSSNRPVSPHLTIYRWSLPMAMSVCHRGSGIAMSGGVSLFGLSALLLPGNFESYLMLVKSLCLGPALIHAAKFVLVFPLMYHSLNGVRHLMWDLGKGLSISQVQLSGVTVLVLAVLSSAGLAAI
T1 sequence (Q6PCT8 57-159): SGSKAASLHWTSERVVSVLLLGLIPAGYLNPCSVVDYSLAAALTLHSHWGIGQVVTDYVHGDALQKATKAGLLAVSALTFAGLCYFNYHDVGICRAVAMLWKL

Cc1ccc(Nc2nccc(N(C)c3ccc4c(C)n(C)nc4c3)n2)cc1S(N)(=O)=O [Pazopanib]
lowest concentration inhibiting RCCs (RCC I–V): equal to Cmax
RCCs inhibited (RCC I–V; up to 100-fold Cmax or highest testable concentration): inhibitor of RCC I but not other RCCs
RCC activity IV (RCC IV; [10]): 102.68 ± 0.57 % of control
RCC activity I (RCC I; [10]): 83.77 ± 2.98 % of control
RCC activity III (RCC III; [10]): 96.90 ± 11.69 % of control
Cmax ([1]; human therapeutic Cmax at FDA recommended dosages, ref product labeling and drug approval packages at the official FDA website): 133 µM
Cmax ([1]; human therapeutic Cmax at FDA recommended dosages, ref product labeling and drug approval packages at the official FDA website, listed as pazopanib): 133 µM
inhibition of state 3 mitochondrial respiration driven by glutamate/malate ([2]; onefold Cmax): over 50%

Cc1ccc(C(=O)Nc2ccc(CN3CCN(C)CC3)c(C(F)(F)F)c2)cc1C#Cc1cnc2cccnn12 [Ponatinib]
effects on intact mitochondria or submitochondrial particles [3]: no effects
RCC IV at 50XCmax (RCC IV; 50XCmax, DMSO treated samples set as 1, in %): 0
RCC I at 10XCmax (RCC I; [11]): 0
RCC V at 5XCmax (RCC V; 5XCmax): 0
RCC V at 50XCmax (RCC V; 50XCmax): 0
RCC III at 100XCmax (RCC III; 100XCmax): 0
Cmax (ng or µg/ml) ([1]; human therapeutic maximal blood concentration, ref product labeling): 0.073 µg/mL
Cmax ([1]; read-out: Cmax at µM, human therapeutic maximal blood concentration, ref product labeling): 0.14 µM
Cytochrome c release 1XCmax ([4]; 1XCmax): 0
Cytochrome c release 2.5XCmax ([4]; 2.5XCmax): 0
Cytochrome c release 5XCmax ([4]; 5XCmax): 0
Cytochrome c release 10XCmax ([4]; 10XCmax): 0
Cytochrome c release 20XCmax ([4]; 20XCmax): 0
Cytochrome c release 30XCmax ([4]; 30XCmax): 0
Cytochrome c release 50XCmax ([4]; 50XCmax): 0
Cytochrome c release 100XCmax ([4]; 100XCmax): 0
MMP measured by Rhodamine 123 at 1XCmax ([5]; 1XCmax): 0
MMP measured by Rhodamine 123 at 2.5XCmax ([5]; 2.5XCmax): 0
MMP measured by Rhodamine 123 at 5XCmax ([5]; 5XCmax): 0
MMP measured by Rhodamine 123 at 10XCmax ([5]; 10XCmax): 0
MMP measured by Rhodamine 123 at 20XCmax ([5]; 20XCmax): 0
MMP measured by Rhodamine 123 at 30XCmax ([5]; 30XCmax): 0
MMP measured by Rhodamine 123 at 50XCmax ([5]; 50XCmax): 0
MMP measured by Rhodamine 123 at 100XCmax ([5]; 100XCmax): 0
RCC II at 1.0XCmax (RCC II; 1.0XCmax): 0
RCC II at 2.5XCmax (RCC II; 2.5XCmax): 0
RCC II at 5XCmax (RCC II; 5XCmax): 0
RCC II at 10XCmax (RCC II; 10XCmax): 0
RCC II at 20XCmax (RCC II; 20XCmax): 0
RCC II at 30XCmax (RCC II; 30XCmax): 0
RCC II at 50XCmax (RCC II; 50XCmax): 0
RCC II at 100XCmax (RCC II; 100XCmax): 0
DILI potential (based on labeling) [6]: 1
Labeling for DILI [6]: BBW: fatal DILI
labeling for DILI [6]: BBW: fatal DILI
Swelling 1XCmax ([7]; 1XCmax): 0
Swelling 2.5XCmax ([7]; 2.5XCmax): 0
Swelling 5XCmax ([7]; 5XCmax): 0
Swelling 10XCmax ([7]; 10XCmax): 0
Swelling 20XCmax ([7]; 20XCmax): 0
Swelling 30XCmax ([7]; 30XCmax): 0
Swelling 50XCmax ([7]; 50XCmax): 0
Swelling 100XCmax ([7]; 100XCmax): 0
ROS measured by CM-H2DCFDA at 1XCmax ([8]; 1XCmax): 0
ROS measured by CM-H2DCFDA at 2.5XCmax ([8]; 2.5XCmax): 0
ROS measured by CM-H2DCFDA at 5XCmax ([8]; 5XCmax): 0
ROS measured by CM-H2DCFDA at 10XCmax ([8]; 10XCmax): 0
ROS measured by CM-H2DCFDA at 20XCmax ([8]; 20XCmax): 0
ROS measured by CM-H2DCFDA at 30XCmax ([8]; 30XCmax): 0
ROS measured by CM-H2DCFDA at 50XCmax ([8]; 50XCmax): 0
ROS measured by CM-H2DCFDA at 100XCmax ([8]; 100XCmax): 0
Labeling for cardiotoxicity ([9]; BBW: black box warning, W&P: Warnings and Precautions): BBW: Heart Failure
Potential for cardiotoxicity (based on labeling) [9]: 1
State 3 respiration driven by succinate at 1XCmax [2, 12]: 0
State 4 respiration driven by succinate at 1XCmax [2, 12]: 0
State 3 respiration driven by succinate at 2.5XCmax [2, 13]: 0
State 4 respiration driven by succinate at 2.5XCmax [2, 13]: 0
State 3 respiration driven by succinate at 5XCmax [2, 14]: 0
State 4 respiration driven by succinate at 5XCmax [2, 14]: 0
State 3 respiration driven by succinate at 10XCmax [2, 11]: 0
State 4 respiration driven by succinate at 10XCmax [2, 11]: 0
State 3 respiration driven by succinate at 20XCmax [2, 15]: 0
State 4 respiration driven by succinate at 20XCmax [2, 15]: 0
State 3 respiration driven by succinate at 30XCmax [2, 16]: 0
State 4 respiration driven by succinate at 30XCmax [2, 16]: 0
State 3 respiration driven by succinate at 50XCmax [2, 17]: 0
State 4 respiration driven by succinate at 50XCmax [2, 17]: 0
State 3 respiration driven by succinate at 100XCmax [2, 18]: 0
State 4 respiration driven by succinate at 100XCmax [2, 18]: 0
